pIC50: −log10 of the molar value.
Columns and labels:
Assay in all cases: Sulforhodamine-B
Format in all cases: cell-based
[1] = system: MCF7 breast cancer cell line; conditions: Homo sapiens, MCF7, read-out: IC50 anticancer evaluation MCF
[2] = system: HOP62 lung cancer cell line; conditions: Homo sapiens, HOP-62, read-out: IC50 anticancer evaluation Hop62
[3] = system: Colo205 colon cancer cell line; conditions: Homo sapiens, COLO 205, read-out: IC50 anticancer evaluation Colo205
[4] = system: HT29 colon cancer cell line; conditions: Homo sapiens, HT-29, read-out: IC50 anticancer evaluation HT29
[5] = system: MIA-PA-CA-2 pancreatic cancer cell line; conditions: Homo sapiens, MIA PaCa-2, read-out: IC50 anticancer evaluation Miapaca-2

Measured: pIC50

COc1cccc2c1C(=O)c1c(O)c3c(c(O)c1C2=O)C[C@@](O)(C(=O)CO)C[C@@H]3O[C@H]1C[C@H](N)[C@H](O)[C@H](C)O1 [Adriamycin]
> 4.82: all assays above
